Among the data in patent US10723723B2, “Substituted bicycle heterocyclic derivatives useful as ROMK channel inhibitors” (BRISTOL-MYERS SQUIBB COMPANY, priority 2016, dated 2020) are IC50 and inhibition values, retold here.

One may read the IC50 as the concentration that inhibits the measured activity by half. The inhibition is the change of the read-out against control, counted positive when it falls. The low end stands for a response near the control, the high end for a response far below the control.

SMILES strings stand for the structures.

One data set has as its target hROMK (human Kir1.1) (Homo sapiens (Human), UniProt P48048). The data set is described as follows: Thallium Flux Assay (FluxOR, CHO T-Rex hROMK stable cell line). It counts as cell-based. Particulars: CHO T-Rex hROMK cells, 10-point concentration response curve; read-out: Human ROMK TH Flux IC50.
A further data set has as its target hERG channels (Homo sapiens (Human), UniProt Q12809). The data set is described as follows: hERG Manual Patch Clamp Assay (HEK 293 cells stably expressing hERG channels). The class given is cell-based. Particulars: human, HEK 293 cells stably expressing hERG channels, pH 7.4. In general terms: The hERG channel carries a current that helps repolarise heart muscle cells.

Sequence of hROMK (human Kir1.1) (P48048 whole entry): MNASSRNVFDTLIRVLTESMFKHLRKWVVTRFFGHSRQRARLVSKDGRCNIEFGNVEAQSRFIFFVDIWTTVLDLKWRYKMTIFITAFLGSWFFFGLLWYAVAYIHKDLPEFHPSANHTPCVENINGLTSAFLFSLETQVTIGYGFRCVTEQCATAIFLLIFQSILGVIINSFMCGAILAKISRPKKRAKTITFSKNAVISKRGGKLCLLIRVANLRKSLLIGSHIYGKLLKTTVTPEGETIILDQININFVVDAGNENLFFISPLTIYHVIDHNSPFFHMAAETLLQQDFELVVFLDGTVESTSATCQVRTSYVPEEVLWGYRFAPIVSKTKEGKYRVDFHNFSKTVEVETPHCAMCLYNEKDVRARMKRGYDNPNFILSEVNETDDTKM
Sequence of hERG channels (Q12809 whole entry): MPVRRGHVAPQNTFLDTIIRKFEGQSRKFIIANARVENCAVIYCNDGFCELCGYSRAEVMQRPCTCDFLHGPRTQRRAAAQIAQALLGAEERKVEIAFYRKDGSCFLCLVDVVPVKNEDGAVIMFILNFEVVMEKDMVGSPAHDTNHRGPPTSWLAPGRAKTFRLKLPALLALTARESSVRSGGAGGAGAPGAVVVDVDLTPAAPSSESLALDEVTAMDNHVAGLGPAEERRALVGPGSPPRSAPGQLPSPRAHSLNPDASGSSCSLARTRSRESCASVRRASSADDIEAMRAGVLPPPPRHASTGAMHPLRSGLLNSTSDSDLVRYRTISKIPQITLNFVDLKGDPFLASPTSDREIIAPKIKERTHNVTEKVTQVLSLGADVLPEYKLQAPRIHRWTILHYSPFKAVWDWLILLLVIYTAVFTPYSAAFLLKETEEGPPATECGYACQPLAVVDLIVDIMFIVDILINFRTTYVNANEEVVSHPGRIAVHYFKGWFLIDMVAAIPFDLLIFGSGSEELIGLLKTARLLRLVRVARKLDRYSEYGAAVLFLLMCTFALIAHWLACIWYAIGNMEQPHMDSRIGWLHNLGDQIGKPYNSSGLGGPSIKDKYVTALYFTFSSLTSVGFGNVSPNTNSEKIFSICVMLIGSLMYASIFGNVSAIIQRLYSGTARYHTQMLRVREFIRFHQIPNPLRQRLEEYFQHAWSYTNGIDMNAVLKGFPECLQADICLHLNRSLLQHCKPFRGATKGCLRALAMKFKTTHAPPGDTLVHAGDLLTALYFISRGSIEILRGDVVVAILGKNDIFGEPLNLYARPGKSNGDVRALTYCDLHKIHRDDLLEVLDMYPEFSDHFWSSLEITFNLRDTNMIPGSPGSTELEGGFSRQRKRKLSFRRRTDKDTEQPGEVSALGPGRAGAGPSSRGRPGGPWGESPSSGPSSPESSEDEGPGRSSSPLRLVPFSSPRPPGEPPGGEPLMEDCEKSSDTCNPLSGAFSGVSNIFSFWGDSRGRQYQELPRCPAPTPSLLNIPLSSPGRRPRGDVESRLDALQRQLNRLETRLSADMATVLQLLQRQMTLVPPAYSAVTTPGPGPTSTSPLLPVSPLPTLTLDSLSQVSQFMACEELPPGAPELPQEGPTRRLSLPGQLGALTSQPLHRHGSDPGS
Procedure for hERG channels: hERG electrophysiology assay: The experimental compounds were assessed for hERG activity on HEK 293 cells stably expressing hERG channels using patch clamp technique. Coverslips plated with hERG expressing cells were placed in the experimental chamber and were perfused with a solution composed of (in mM): 140 NaCl, 4 KCl, 1.8 CaCl2), 1 MgCl2, 10 Glucose, 10 HEPES (pH 7.4, NaOH) at room temperature. Borosilicate patch pipettes had tip resistances of 2-4 Mohms when filled with an internal solution containing: 130 KCl, 1 MgCl2, 1 CaCl2), 10 EGTA, 10 HEPES, 5 ATP-K2 (pH 7.2, KOH). The cells were clamped at −80 mV in whole cell configuration using an Axopatch 200B (Axon instruments, Union City, Calif.) patch clamp amplifier controlled by pClamp (Axon instruments) software. Upon formation of a gigaseal, the following voltage protocol was repeatedly (0.05 Hz) applied to record tail currents: depolarization step from −80 mV to +20 mV for 2 seconds followed by a hyperpolarization step to −65 mV (3 seconds) to elicit tail currents. Compounds were applied after stabilization of tail current. First, tail currents were recorded in presence of extracellular solution alone (control) and subsequently, in extracellular solution containing increasing compound concentrations. Each compound concentration was applied for 2-5 minutes. The percentage inhibition at each concentration was calculated as reduction in peak tail current with respect to the peak tail current recorded in the presence of control solution. Data analysis was performed in a custom made template. The percent inhibitions at different concentrations were plotted to obtain a concentration response curve, which was subsequently fitted with a four parameter equation to calculate hERG IC50 value.
A lower hERG % Inhibition value indicates less inhibition of the hERG current
Procedure for hROMK (human Kir1.1): Solutions and reagents: Thallium flux assay was performed using FluxOR kit (F10017, Life Technologies). Loading buffer, assay buffer and stimulus buffer were prepared using kit components.
To prepare 10 ml of loading buffer: 10 μl of FluxOR dye (reconstituted in DMSO) was first added to 100 μl of powerload concentrate and this mix along with 100 μl of Probenicid (100×) was then added to 9.79 ml of HBSS. […] Stimulus buffer was composed of 15 mM Tl2SO4, 0.75 mM K2SO4 in FluxOR chloride free buffer (diluted to 1× using deionized water). The final concentration of Tl2SO4 and K2SO4 in the assay plate was 3 mM and 0.15 mM, respectively.
Plating and induction of cells: The CHO T-Rex hROMK (human Kir1.1) stable cell line was maintained in Ham's F12 media supplemented with 10% FBS, 1% Penicillin-Streptomycin, 500 μg/ml Zeocin and 10 μg/ml Blasticidin at 37° C. in a 5% CO2 incubator. […] The cell suspension was centrifuged at 1200 rpm for 5 min. After discarding the supernatant, the cells were resuspended in fresh growth media and cell concentration was determined using a hemocytometer. […] The assay plate was kept at 37° C. in a 5% CO2 incubator.
Assay protocol: On the day of experiment, media was removed and loading buffer was added (30 μl/well) to the assay plate. The cells were incubated in the loading buffer for 30 minutes at 37° C. The loading buffer was then replaced by assay buffer (30 μl/well) followed by addition of test compounds or controls. […] Each well was read for 90 sec at 2 sec interval and the stimulus buffer was added after 20 seconds of baseline recording. The final DMSO concentration was either 0.5 or 1% in the assay plate. Positive and negative controls were defined by addition of DMSO or 3 μM of a standard ROMK inhibitor, respectively, to the wells instead of a test compound.
A 10-point concentration response curve was used to estimate the IC50 value of test compounds.

With `Cc1c([C@@H](O)CNCc2cnc(-n3cc(C#N)c(C(F)(F)F)n3)nc2)ccc2c1COC2=O` [Example 110, (R)-1-(5-(((2-hydroxy-2-(4-methyl-1-oxo-1,3-dihydroisobenzofuran-5-yl)ethyl)amino)methyl)pyrimidin-2-yl)-3-(trifluoromethyl)-1H-pyrazole-4-carbonitrile], the IC50 at hROMK (human Kir1.1) came out at 42 nM. For the same molecule, 1 µM produced 13% inhibition on hERG channels.

Turning to `Cc1c([C@@H](O)CNCc2cn(-c3ccc4oc(=O)n(C)c4c3)nc2C(F)(F)F)ccc2c1COC2=O` [Example 95, (R)-5-(4-(((2-hydroxy-2-(4-methyl-1-oxo-1,3-dihydroisobenzofuran-5-yl)ethyl)amino)methyl)-3-(trifluoromethyl)-1H-pyrazol-1-yl)-3-methylbenzo[d]oxazol-2(3H)-one], the IC50 on hROMK (human Kir1.1) amounted to 56 nM. On hERG channels, this molecule had an inhibition at 1 µM of 11%.

Turning to `Cc1cn(-c2ccc(CNC[C@H](O)c3ccc4c(c3C)COC4=O)cn2)nc1C#N` [Example 92, (R)-1-(5-(((2-hydroxy-2-(4-methyl-1-oxo-1,3-dihydroisobenzofuran-5-yl)ethyl)amino)methyl)pyridin-2-yl)-4-methyl-1H-pyrazole-3-carbonitrile], the IC50 on hROMK (human Kir1.1) was found to be 6.4 nM. At hERG channels, the inhibition at 1 µM amounted to 24%.

On to `Cc1c([C@@H](O)CNCc2cnn(-c3cccc(C#N)c3)c2)ccc2c1COC2=O` [Example 161, (R)-3-(4-(((2-hydroxy-2-(4-methyl-1-oxo-1,3-dihydroisobenzofuran-5-yl)ethyl)amino)methyl)-1H-pyrazol-1-yl)benzonitrile], for which the IC50 at hROMK (human Kir1.1) worked out at 77 nM. Moreover, the inhibition at 1 µM against hERG channels was found to be 48%.

In the case of `CC(=O)N[C@@H](CNCc1cnn(-c2cc(C)c(C#N)cn2)c1)c1ccc2c(c1C)COC2=O` [Example 39, (R)—N-(2-(((1-(5-cyano-4-methylpyridin-2-yl)-1H-pyrazol-4-yl)methyl)amino)-1-(4-methyl-1-oxo-1,3-dihydroisobenzofuran-5-yl)ethyl)acetamide], at hROMK (human Kir1.1), the IC50 came out at 58 nM. Besides, on hERG channels, the inhibition at 1 µM worked out at 2.6%.

Consider `Cc1c([C@@H](O)CNCc2cnn(-c3ccc4c(c3C)COC4=O)c2)ccc2c1COC2=O` [Example 75, (R)-5-(1-hydroxy-2-(((1-(4-methyl-1-oxo-1,3-dihydroisobenzofuran-5-yl)-1H-pyrazol-4-yl)methyl)amino)ethyl)-4-methylisobenzofuran-1(3H)-one], for which the IC50 on hROMK (human Kir1.1) was determined as 65 nM. The molecule further registered an inhibition at 1 µM against hERG channels of 4.3%.

Consider `Cc1cc(-n2cc(CNC[C@H](NCCO)c3ccc4c(c3C)COC4=O)cn2)ncc1C#N` [Example 56, (R)-6-(4-(((2-((2-hydroxyethyl)amino)-2-(4-methyl-1-oxo-1,3-dihydroisobenzofuran-5-yl)ethyl)amino)methyl)-1H-pyrazol-1-yl)-4-methylnicotinonitrile], for which the IC50 on hROMK (human Kir1.1) was 80 nM. The same molecule showed an inhibition at 1 µM at hERG channels of 3.7%.

On to `Cc1c([C@@H](O)CNCc2ccc(-n3cc(C#N)c(OC(F)F)n3)nc2)ccc2c1COC2=O` [Example 175, (R)-3-(difluoromethoxy)-1-(5-(((2-hydroxy-2-(4-methyl-1-oxo-1,3-dihydroisobenzofuran-5-yl)ethyl)amino)methyl)pyridin-2-yl)-1H-pyrazole-4-carbonitrile], for which the IC50 at hROMK (human Kir1.1) came to 3.6 nM. In addition, at 1 µM the inhibition against hERG channels was 86%.

With `Cc1c([C@@H](O)CNCc2cnc(-n3cc(C#N)c(C4CC4)n3)nc2)ccc2c1COC2=O` [Example 117, (R)-3-cyclopropyl-1-(5-(((2-hydroxy-2-(4-methyl-1-oxo-1,3-dihydroisobenzofuran-5-yl)ethyl)amino)methyl)pyrimidin-2-yl)-1H-pyrazole-4-carbonitrile], the 50% inhibitory concentration (IC50) at hROMK (human Kir1.1) was 24 nM. The molecule further had an inhibition at 1 µM against hERG channels of 32%.

As to `COc1cc(-n2cc(CNC[C@H](O)c3ccc4c(c3C)COC4=O)cn2)nc(C)c1C#N` [Example 70, (R)-6-(4-(((2-hydroxy-2-(4-methyl-1-oxo-1,3-dihydroisobenzofuran-5-yl)ethyl)amino)methyl)-1H-pyrazol-1-yl)-4-methoxy-2-methylnicotinonitrile], the IC50 on hROMK (human Kir1.1) worked out at 19 nM. At hERG channels, this molecule showed an inhibition at 1 µM of 27%.

Regarding `Cc1c(C(O)CN(C)Cc2cnc(-c3ccc(C#N)c(F)c3)nc2)ccc2c1COC2=O` (centres unmarked) [Example 19-I, 2-fluoro-4-(5-(((2-hydroxy-2-(4-methyl-1-oxo-1,3-dihydroisobenzofuran-5-yl)ethyl)(methyl)amino)methyl)pyrimidin-2-yl)benzonitrile], at hROMK (human Kir1.1), the IC50 was 150 nM. The molecule also displayed an inhibition at 1 µM at hERG channels of 33%.

With `Cc1cnc(-n2cc(CNC[C@H](O)c3ccc4c(c3C)COC4=O)cn2)cc1C#N` [Example 49, (R)-2-(4-(((2-hydroxy-2-(4-methyl-1-oxo-1,3-dihydroisobenzofuran-5-yl)ethyl)amino)methyl)-1H-pyrazol-1-yl)-5-methylisonicotinonitrile], the IC50 at hROMK (human Kir1.1) turned out to be 32 nM. Also, the inhibition at 1 µM on hERG channels worked out at 18%.

`Cc1c([C@@H](O)CNCc2ccc(-n3ccnc3)nc2)ccc2c1COC2=O` [Example 109, (R)-5-(2-(((6-(1H-imidazol-1-yl)pyridin-3-yl)methyl)amino)-1-hydroxyethyl)-4-methylisobenzofuran-1(3H)-one]: the IC50 at hROMK (human Kir1.1) came out at 40 nM. Further, testing at 1 µM against hERG channels gave an inhibition of 12%.

As for `Cc1cn(-c2ncc(CNC[C@H](O)c3ccc4c(c3C)COC4=O)cn2)nc1C#N` [Example 94, (R)-1-(5-(((2-hydroxy-2-(4-methyl-1-oxo-1,3-dihydroisobenzofuran-5-yl)ethyl)amino)methyl)pyrimidin-2-yl)-4-methyl-1H-pyrazole-3-carbonitrile], the IC50 at hROMK (human Kir1.1) is 56 nM. Testing at 1 µM on hERG channels gave an inhibition of 13%.

With `Cc1c([C@@H](O)CNCc2cnn(-c3cc(C4CC4)c(C#N)cn3)c2)ccc2c1COC2=O` [Example 148, (R)-4-cyclopropyl-6-(4-(((2-hydroxy-2-(4-methyl-1-oxo-1,3-dihydroisobenzofuran-5-yl)ethyl)amino)methyl)-1H-pyrazol-1-yl)nicotinonitrile], the IC50 at hROMK (human Kir1.1) is 200 nM. Also, the inhibition at 1 µM against hERG channels was 72%.

As for `CNc1cc(-n2cc(CNC[C@H](O)c3ccc4c(c3C)COC4=O)cn2)ncc1C#N` [Example 146, (R)-6-(4-(((2-hydroxy-2-(4-methyl-1-oxo-1,3-dihydroisobenzofuran-5-yl)ethyl)amino)methyl)-1H-pyrazol-1-yl)-4-(methylamino)nicotinonitrile], at hROMK (human Kir1.1), the IC50 was found to be 25 nM. This molecule also registered an inhibition at 1 µM against hERG channels of 61%.

For the molecule `Cc1cc(-c2ccc(CN(C)CC(O)c3ccc4c(c3C)COC4=O)cc2)ncc1C#N` (single isomer, unassigned) [Example 31-I, 6-(4-(((2-hydroxy-2-(4-methyl-1-oxo-1,3-dihydroisobenzofuran-5-yl)ethyl)(methyl)amino)methyl)phenyl)-4-methylnicotinonitrile], the half-inhibitory concentration (IC50) on hROMK (human Kir1.1) was 40 nM. Moreover, the inhibition at 1 µM against hERG channels came out at 39%.

Turning to `Cc1cc(-c2ncc(CNC[C@H](O)c3ccc4c(c3C)COC4=O)s2)ncc1C#N` [Example 128, (R)-6-(5-(((2-hydroxy-2-(4-methyl-1-oxo-1,3-dihydroisobenzofuran-5-yl)ethyl)amino)methyl)thiazol-2-yl)-4-methylnicotinonitrile], on hROMK (human Kir1.1), the IC50 turned out to be 6.6 nM. This molecule came in with an inhibition at 1 µM against hERG channels of 22%.

As to `COc1cc(-n2cc(CNC[C@H](O)c3ccc4c(c3C)COC4=O)cn2)cc2c1oc(=O)n2C` [Example 112, (R)-5-(4-(((2-hydroxy-2-(4-methyl-1-oxo-1,3-di-Hydroisobenzofuran-5-yl)ethyl)amino)methyl)-1H-pyrazol-1-yl)-7-methoxy-3-mthylbenzo[d]oxazol-2(3H)-one], the IC50 on hROMK (human Kir1.1) came to 66 nM. At hERG channels, at 1 µM the inhibition was 4.2%.

`Cc1c([C@@H](O)CNCc2cnn(-c3cnc(C#N)cn3)c2)ccc2c1COC2=O` [Example 41, (R)-5(4-(((2-hydroxy-2-(4-methyl-1-oxo-1,3-dihydroisobenzofuran-5-yl)ethyl)amino)methyl)-1H-pyrazol-1-yl)pyrazine-2-carbonitrile]: the IC50 on hROMK (human Kir1.1) was found to be 32 nM. Testing at 1 µM on hERG channels gave an inhibition of 50%.

As to `Cc1cc(-n2cc(CNC[C@H](O)c3ccc4c(c3C)COC4=O)c(C)n2)ncc1C#N` [Example 74, (R)-6-(4-(((2-hydroxy-2-(4-methyl-1-oxo-1,3-dihydroisobenzofuran-5-yl)ethyl)amino)methyl)-3-methyl-1H-pyrazol-1-yl)-4-methylnicotinonitrile], the IC50 at hROMK (human Kir1.1) came to 59 nM. The inhibition at 1 µM against hERG channels was determined as 32%.

`COc1nc(-n2cc(CNC[C@H](O)c3ccc4c(c3C)COC4=O)cn2)ccc1C#N` [Example 48, (R)-6-(4-(((2-hydroxy-2-(4-methyl-1-oxo-1,3-dihydroisobenzofuran-5-yl)ethyl)amino)methyl)-1H-pyrazol-1-yl)-2-methoxynicotinonitrile]: the IC50 at hROMK (human Kir1.1) amounted to 14 nM. The molecule also came in with an inhibition at 1 µM at hERG channels of 67%.

As for `COc1cc(-n2ncc3c(CNC[C@H](O)c4ccc5c(c4C)COC5=O)cccc32)ncc1C#N` [Example 55], at hROMK (human Kir1.1), the IC50 worked out at 78 nM. At hERG channels, this molecule returned an inhibition at 1 µM of 69%.

For `CCOc1cc(-n2cc(CNC[C@H](O)c3ccc4c(c3C)COC4=O)nn2)ncc1C#N` [Example 156, (R)-4-ethoxy-6-(4-(((2-hydroxy-2-(4-methyl-1-oxo-1,3-dihydroisobenzofuran-5-yl)ethyl)amino)methyl)-1H-1,2,3-triazol-1-yl)nicotinonitrile], the IC50 at hROMK (human Kir1.1) worked out at 9.7 nM. Besides, on hERG channels, 1 µM produced 15% inhibition.

On to `CCOc1cc(-n2ncc(CNC[C@H](O)c3ccc4c(c3C)COC4=O)n2)ncc1C#N` [Example 155, (R)-4-ethoxy-6-(4-(((2-hydroxy-2-(4-methyl-1-oxo-1,3-dihydroisobenzofuran-5-yl)ethyl)amino)methyl)-2H-1,2,3-triazol-2-yl)nicotinonitrile], for which, on hROMK (human Kir1.1), the IC50 was found to be 31 nM. Also, the inhibition at 1 µM on hERG channels is 20%.
